Experiments:
NK1 receptor = target: T1, NK1 receptor (Homo sapiens, UniProt P25103); assay: NK binding affinity, scintillation proximity assay (SPA), 125I Substance P; conditions: plasma membrane from CHO cell lines expressing NK1, read-out: NK1 pKi (converted)
T1 construct: expressed in transfected cells; host or cells: CHO cell line, plasma membrane preparation
Description: (§1) The NK binding affinity of the compounds of the invention was determined using the following scintillation proximity assay (SPA) (see H. M. Sarau et al, J. Pharmacol. Experimental Therapeutics 1997, 281(3), 1303-1311; H. M. Sarau et al, J. Pharmacol. Experimental Therapeutics 2000, 295(1), 373-381; G. A. M. Giardina et al J.Med.Chem 1999, 42, 1053-1065). ^125I Substance P, ^125I NKA and ^125I [MePhe7]-NKB were used in the binding SPA of NK1, NK2 and NK3 receptor, respectively. Polystrene Leadseeker WGA-SPA beads (Amersham Biosciences) were mixed with plasma membrane prepared from CHO cell lines expressing NK1, NK2 or NK3 in a bead/membrane ratio of 20:1 (w/w) in assay buffer (75 mM Tris pH 7.8, 75 mM NaCl, 4 mM MnCl2, 1 mM EDTA, 0.05% Chaps, 1 mM PMSF). The mixture was placed on ice for 30 minutes to allow the formation of membrane/bead complex before BSA was added to a final concentration of 1%. After another 30 minutes incubation on ice, the bead/membrane complex was washed twice and suspended in assay buffer. ^125I-labelled ligands were then added to the bead/membrane complex. 30 μl of the resulting mixture was then dispensed into each well of a Nalgen NUNC 384-well plate with 1 μl compound pre-dispensed in 50% DMSO. The plates were then sealed and pulse spun at 1100 rpm. After 3 hours incubation at room temperature with shaking, the plates were spun for 2 min at 1100 rpm and measured in Viewlux imager (PerkinElmer) for 5 minutes with a 618-nm filter. Inhibition of radioactive ligand binding to its respective receptor was measured by the reduction of signal. pKi was calculated using Kd of each radioactive ligand determined in a separate experiment.

NK2 receptor = target: T2, NK2 receptor (Homo sapiens, UniProt P21452); assay: NK binding affinity, scintillation proximity assay (SPA), 125I NKA; conditions: plasma membrane from CHO cell lines expressing NK2, read-out: NK2 pKi (converted)
T2 construct: expressed in transfected cells; host or cells: CHO cell line, plasma membrane preparation
T2 sequence (P21452 1-398): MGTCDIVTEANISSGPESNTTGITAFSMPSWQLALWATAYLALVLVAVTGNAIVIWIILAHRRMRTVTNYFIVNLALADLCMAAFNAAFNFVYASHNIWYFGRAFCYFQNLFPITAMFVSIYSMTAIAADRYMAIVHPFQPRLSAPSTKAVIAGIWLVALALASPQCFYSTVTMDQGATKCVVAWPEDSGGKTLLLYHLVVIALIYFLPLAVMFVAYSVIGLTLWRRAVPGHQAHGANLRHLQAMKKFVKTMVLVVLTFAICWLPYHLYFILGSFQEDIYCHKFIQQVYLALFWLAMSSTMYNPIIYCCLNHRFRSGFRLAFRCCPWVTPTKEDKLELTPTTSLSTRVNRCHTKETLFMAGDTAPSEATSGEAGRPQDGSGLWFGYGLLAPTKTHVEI
Description: as §1

NK3 receptor = target: T3, NK3 receptor (Homo sapiens, UniProt P29371); assay: NK binding affinity, scintillation proximity assay (SPA), 125I [MePhe7]-NKB; conditions: plasma membrane from CHO cell lines expressing NK3, read-out: NK3 pKi (converted)
T3 construct: expressed in transfected cells; host or cells: CHO cell line, plasma membrane preparation
T3 sequence (P29371 1-465): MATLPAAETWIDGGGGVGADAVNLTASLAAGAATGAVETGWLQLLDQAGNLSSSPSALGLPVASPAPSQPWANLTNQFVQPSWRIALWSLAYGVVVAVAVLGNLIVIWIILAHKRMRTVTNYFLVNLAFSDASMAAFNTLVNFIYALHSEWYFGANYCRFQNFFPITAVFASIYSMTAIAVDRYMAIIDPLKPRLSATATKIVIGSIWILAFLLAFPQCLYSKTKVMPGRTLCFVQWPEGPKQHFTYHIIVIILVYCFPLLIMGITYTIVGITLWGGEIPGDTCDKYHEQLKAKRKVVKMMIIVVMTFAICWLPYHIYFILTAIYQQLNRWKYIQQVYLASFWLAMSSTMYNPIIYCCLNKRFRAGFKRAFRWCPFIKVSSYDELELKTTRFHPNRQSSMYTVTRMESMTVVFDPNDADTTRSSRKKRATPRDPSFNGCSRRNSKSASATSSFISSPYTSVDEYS
Description: as §1

[1] = Measurement of brain exposure; assay type: in vivo; conditions: rats, orally dosed 3 mg/kg as 1% methylcellulose suspension; brain homogenate concentration vs time over 12 hr
Description: Compounds of the invention were orally dosed (3 mg/kg) to rats as 1% methylcellulose (w/v) suspensions. The rats were sacrificed after set time intervals and the concentration of the compound of the invention in brain homogenate was determined by protein precipitation followed by LC-MS-MS analysis of the extracts against standards prepared in brain homogenate. A graph of brain concentration against time was plotted over a 12 hr period. The area under the curve (AUC, units=hours.ng/g brain) was taken as a measure of brain exposure.

T1 sequence (P25103 whole entry): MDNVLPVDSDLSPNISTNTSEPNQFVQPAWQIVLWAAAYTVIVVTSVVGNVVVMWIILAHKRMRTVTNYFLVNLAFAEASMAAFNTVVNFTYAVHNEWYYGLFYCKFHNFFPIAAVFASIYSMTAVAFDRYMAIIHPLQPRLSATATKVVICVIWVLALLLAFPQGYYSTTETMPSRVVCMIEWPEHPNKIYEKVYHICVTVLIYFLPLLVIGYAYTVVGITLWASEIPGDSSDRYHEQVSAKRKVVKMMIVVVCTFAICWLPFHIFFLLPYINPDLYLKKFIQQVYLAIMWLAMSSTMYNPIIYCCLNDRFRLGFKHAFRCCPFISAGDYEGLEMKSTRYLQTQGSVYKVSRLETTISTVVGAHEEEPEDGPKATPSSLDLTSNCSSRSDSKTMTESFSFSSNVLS

Ki (NK1 receptor)	Ki (NK2 receptor)	Ki (NK3 receptor)	Brain Exposure (AUC, h · ng/g brain) [1]	Compound
1260 nM	251 nM	10 nM	1900 h · ng/g brain	O=C(N[C@H](c1ccccc1)C1CC1)c1c(Cn2ncnn2)c(-c2cccc(F)c2)nc2ccccc12 [Example 45, 2-(3-Fluoro-phenyl)-3-tetrazol-2-ylmethyl-quinoline-4-carboxylic acid ((S)-1-cyclopropyl-1-phenyl-methyl)-amide]
631 nM	158 nM	2.51 nM	2091 h · ng/g brain	O=C(N[C@H](c1cccc(F)c1)C1CC1)c1c(Cn2nccn2)c(-c2ccccc2)nc2ccccc12 [Example 37, 2-Phenyl-3-[1,2,3]triazol-2-ylmethyl-quinoline-4-carboxylic acid [(S)-1-cyclopropyl-1-(3-fluoro-phenyl)-methyl]-amide]
1260 nM	251 nM	3.98 nM	2361 h · ng/g brain	O=C(N[C@H](c1cccc(F)c1)C1CC1)c1c(Cn2ncnn2)c(-c2ccccc2)nc2ccccc12 [Example 35, 2-Phenyl-3-tetrazol-2-ylmethyl-quinoline-4-carboxylic acid [(S)-1-cyclopropyl-1-(3-fluoro-phenyl)-methyl]-amide]
1000 nM	316 nM	10 nM	1896 h · ng/g brain	O=C(N[C@H](c1ccccc1)C1CC1)c1c(Cn2nccn2)c(-c2cccc(F)c2)nc2ccccc12 [Example 1, 2-(3-Fluoro-phenyl)-3-[1,2,3]triazol-2-ylmethyl-quinoline4-carboxylic acid ((S)-1-cyclopropyl-1-phenyl-methyl)-amide]
